This is an account of results in US3961054A, “Combatting dandruff with mercapto quinoline N-oxides” (Ciba-Geigy Corporation, priority 1974, dated 1976).

Data set [1] has as its system P. Ovale. In words: Microbiological activity against P. Ovale, agar serial dilution (Table 1). The format is cell-based, P. Ovale (ATCC 14521). The settings on record: for MIC: 96 h, read-out: Minimum Inhibitory Concentration (MIC) against P. Ovale. As for the experimental part: The microbiological activities of the zinc and sodium complexes of 2-mercapto-quinoline-N-oxide (MQNO) against P. Ovale were compared with the sodium and zinc salts of pyridinethione-N-oxide (PTO) and other conventional soapbacteriostats. P. Ovale is a microorganism associated with dandruff conditions.
Equal amounts of the respective compounds were dissolved in methyl cellosolve, dimethylformamide, or water, serially diluted in ten fold sequence and incorporated into plates of molten Agar. The plates were allowed to solidify, were then inoculated with P. Ovale (ATCC 14521), incubated at 27°C. for 4 days and inspected for growth.

In data set [2] the test system is P. Ovale. In words: Substantivity/activity in calf skin, zone of inhibition against P. Ovale (Table 2). The format is cell-based. The settings on record: 2% in shampoo, replicate plates 1-4, 27°C, 4 days. Also on record: unit not given here. The source says: The substantivity/activity of the zinc complex of 2-mercapto-quinoline-N-oxide of the invention in calf-skin were compared with the zinc salt of pyridinethione-N-oxide in the following manner. ZnMQNO and ZnPTO were incorporated by blending on a 3-roll mill in amounts of 1% and 2% by weight into a non-bacteriostatic paste shampoo of the following composition.
Calf skin specially prepared by the method of Vinson IN VITRO TESTS FOR MEASURING ANTIBACTERIAL ACTIVITY OF TOILET SOAP AND DETERGENT BARS by L. J. Vinson, E. L. Ambye, A. G. Bennet, Journal of Pharmaceutical Sciences, Vol. 50, P. 10, October, 1961.
0.3 g of shampoo was applied in each instance to 12.5 sq. in. of calf skin (equivalent to […] of shampoo per 90.2 sq. in. of human scalp) and a rich lather worked up for 2 minutes. The calf skin was then rinsed in running tap water for 30 seconds with vigorous message to remove all lather. The moist skin was then given a second lather identical to the first and again rinsed as before. After air drying, the calf skins were cut into 2.1 cm discs and placed on agar inoculated with P. Ovale. After 4 days incubation at 27°C, the zones of inhibition size were recorded.

For the next data set, the system named is Aspergillus oryzae. In words: Antimicrobial spectrum, MIC, Aspergillus oryzae (Table 3). Type of data set: cell-based, Aspergillus oryzae ATCC 10196. The settings on record: for MIC: Aspergillus oryzae. As for the experimental part:
(§1) Equivalent amounts of ZnMQNO, NaMQNO, ZnPTO and NaPTO were solubilized in methyl cellosolve (PTO) and dimethyl formamide (MQNO). Ten fold serial dilutions were prepared employing additional solvent and equal aliquots pipetted into molten (50°C) agar support media. Nutrient Agar was employed for all bacteria and Mycological Agar was employed for the fungi and dermatophyte. After preparing pour plates for the bacteria and streaks for the fungi and dermatophyte, the plates were incubated (37°C and 27°C, respectively) and observed for growth.

For data set [3], the system named is Gram-positive and negative bacteria, fungi and dermatophytes. Nature of the data set: Antimicrobial spectrum, overall (Example 8). The format is cell-based. The following applies: in words, from Table 3. The method, then:
as §1

The test system of another data set is dandruff. The settings on record: in words; background; cited from earlier work.
Another data set relates to Staph. aureus. In words: Antimicrobial spectrum, MIC, Staph. aureus (Table 3). Type of data set: cell-based, Staph. aureus ATCC 6538. The following applies: Staphylococcus aureus. As for the experimental part: as §1
The nature of data set [4]: Relative solubility (statement in words). Type of data set: physicochemical. The settings on record: explains smaller zone size in agar.
Another data set deals with T. interdigitale. Nature of the data set: Antimicrobial spectrum, MIC, T. interdigitale (Table 3). The format is cell-based, Trichophyton interdigitale ATCC 9533. The settings on record: Trichophyton interdigitale, ATCC9533, read-out: Minimum Inhibitory Concentration, T. interdigitale. As for the experimental part: as §1
The next data set concerns Proteus vulgaris. In words: Antimicrobial spectrum, MIC, Proteus vulgaris (Table 3). Type of data set: cell-based. The settings on record: ATCC9920, ATCC 9920, Nutrient Agar, 37°C, ten fold dilutions, read-out: Minimum Inhibitory Concentration, Proteus vulgaris. As for the experimental part:
as §1

Where [5] appears, read: Pityrosporum ovale, agar, 27°C, 4 days.

In brackets after ≈: the same amount, converted by molar mass. Several values for one entry are separate records, joined by “and”; a condition that tells them apart may be missing. Equal values may be shown once. Where a name gives a salt, the structure may show the parent alone. Read-outs that look alike come from different tables or passages of the source. Where only a bound is given, the exact number is not on record here.

As to `Oc1c(I)cc(I)c2cccnc12` [Diiodohydroxyquinoline], the MIC in the data set with P. Ovale [1] (setting [5]) worked out at 1000 µg/mL (≈ 2.52 mM).

Consider `C=CCCCCCCCCC(=O)O` [Undecylenic acid], for which the MIC in the data set on P. Ovale [1] turned out to be 1000 µg/mL (≈ 5.43 mM).

Regarding `Oc1ccc(Cl)cc1Sc1cc(Cl)ccc1O` [2,2'-dihydroxy-5.5'-dichlorodiphenyl monosulfide], in the data set with P. Ovale [1], the MIC is over 1000 µg/mL.

Turning to “m-alkyl-dimethyl-ethyl-benzyl ammonium chloride”, the “Minimum Inhibitory Concentration (MIC) against P. Ovale” value in the data set on P. Ovale [1] (agar, 27°C, 4 days) is listed as over 1000 PPM.

`Sc1ccc2ccccc2n1` [2-mercaptoquinoline]: in the data set with P. Ovale [1] (setting [5]), the MIC is over 1000 µg/mL.

As to `[O-][n+]1ccccc1[S-].[O-][n+]1ccccc1[S-].[Zn+2]` [Zn PTO, zinc salt of pyridinethione-N-oxide], in the data set with P. Ovale [2] (listed as Zinc PTO), the “Zone of Inhibition Against P. Ovale - Calf Skin, 1 Application” value is 4.5 and 4.0 and 5.0; the “Zone of Inhibition Against P. Ovale - Calf Skin, 2 Applications” value was 10.0 and 7.0 and 5.0. Moreover, the “Minimum Inhibitory Concentration, Aspergillus oryzae” value with Aspergillus oryzae (ATCC 10196, Mycological Agar, 27°C, ten fold dilutions) was 10 100 PPM. Moreover, in [3], the antimicrobial spectrum result is “broad-spectrum antimicrobial agents showing good activity at low concentrations against Gram-positive and negative bacteria, fungi and dermatophytes”. Also, the “Minimum Inhibitory Concentration (MIC) against P. Ovale” value in the data set with P. Ovale [1] (agar, 27°C, 4 days) is 7-10 PPM.

For the compound `[S]` [elemental sulfur], the “anti-dandruff activity (prior art agents)” value with dandruff is “extremely effective in the control of dandruff”.

Consider `O=c1[nH]c2cc(Cl)c(Br)cc2o1` [5-chloro-6-bromobenzoxazo-linone], for which the MIC in the data set with P. Ovale [1] (setting [5]) was 1000 µg/mL (≈ 4.02 mM).

Take `O=C(Nc1ccc(Cl)cc1)c1cc(Cl)cc(Cl)c1O` [Trichloro salicyanilide]: the “Minimum Inhibitory Concentration (MIC) against P. Ovale” value with P. Ovale [1] (agar, 27°C, 4 days) is on record as over 1000 PPM.

“Sodium salt of sulphosuccinate of undecylenic-monoalkylolamide”: the “Minimum Inhibitory Concentration (MIC) against P. Ovale” value with P. Ovale [1] (agar, 27°C, 4 days) is reported as over 1000 PPM.

As for “N-alkyl-dimethyl-ethyl-benzyl ammonium cyclohexyl sulfamate”, the “Minimum Inhibitory Concentration (MIC) against P. Ovale” value with P. Ovale [1] (agar, 27°C, 4 days) is recorded as over 1000 PPM.

Turning to `Oc1c(Cl)cc(Cl)c(Cl)c1Cc1c(O)c(Cl)cc(Cl)c1Cl` [Hexachlorophene], in the data set with P. Ovale [1], the MIC is over 1000 µg/mL.

Consider `[O-][n+]1ccccc1S` [Na PTO, sodium salt of pyridinethione-N-oxide], for which the MIC in the data set with Staph. aureus (ATCC6538, read-out: Minimum Inhibitory Concentration, Staph. aureus) is 0.1 µg/mL; in the data set on Aspergillus oryzae (ATCC10196, read-out: Minimum Inhibitory Concentration, Aspergillus oryzae), 10100 µg/mL; in the data set with P. Ovale [1], 7 to 10 µg/mL. Further, in data set [3], the antimicrobial spectrum entry was “broad-spectrum antimicrobial agents showing good activity at low concentrations against Gram-positive and negative bacteria, fungi and dermatophytes”.

In the case of `Cc1cc(O)cc(C)c1Cl` [P-chloro-m-xylenol], in the data set on P. Ovale [1] (setting [5]), the MIC stood at 1000 µg/mL (≈ 6.39 mM).

In the case of `[O-][n+]1c(S)ccc2ccccc21.[Zn]` [Zn MQNO, Zinc 2-mercaptoquinoline-N-oxide], the “solubility relative to ZnPTO” value in data set [4] was “less soluble than ZnPTO”. Moreover, in the data set with P. Ovale [2] (listed as MONO), the “Zone of Inhibition Against P. Ovale - Calf Skin, 1 Application” value was 0.5 and 1.5 and 1.0; the “Zone of Inhibition Against P. Ovale - Calf Skin, 2 Applications” value was 2.0 and 4.5 and 2.5. The MIC in the data set with T. interdigitale came to 10100 µg/mL.

As for `[O-][n+]1c(S)ccc2ccccc21` [Na MQNO, Sodium Complex Of 2-Mercapto-Quinoline-N-Oxide], the MIC with Proteus vulgaris was 0.1 µg/mL; with Staph. aureus (ATCC6538, ATCC 6538, Nutrient Agar, 37°C, ten fold dilutions, read-out: Minimum Inhibitory Concentration, Staph. aureus), 0.1 µg/mL; in the data set on Aspergillus oryzae (ATCC10196, ATCC 10196, Mycological Agar, 27°C, ten fold dilutions, read-out: Minimum Inhibitory Concentration, Aspergillus oryzae), 10100 µg/mL; in the data set on P. Ovale [1] (setting [5]), 50 to 60 µg/mL.

As for `O=C(Nc1ccc(Cl)c(Cl)c1)c1cc(Cl)cc(Cl)c1O` [Tetrachloro salicyanilide], in the data set on P. Ovale [1] (agar, 27°C, 4 days), the “Minimum Inhibitory Concentration (MIC) against P. Ovale” value is reported as 1000 PPM.

Take `O=C(Nc1ccc(Cl)cc1)Nc1ccc(Cl)c(Cl)c1` [Trichlorocarbanilide]: in the data set on P. Ovale [1] (agar, 27°C, 4 days), the “Minimum Inhibitory Concentration (MIC) against P. Ovale” value is recorded as over 1000 PPM.

Take `Oc1c(Cl)cc(Cl)cc1Sc1cc(Cl)cc(Cl)c1O` [Thio bis(dichlorophenol)]: the “Minimum Inhibitory Concentration (MIC) against P. Ovale” value in the data set on P. Ovale [1] (agar, 27°C, 4 days) was over 1000 PPM.

Take `Oc1cccc2cccnc12` [8-Hydroxyquinoline]: in the data set on P. Ovale [1], the MIC turned out to be 100 µg/mL (≈ 0.689 mM).

For `O=C(Nc1ccc(Br)cc1)c1cc(Br)cc(Br)c1O` [Tribromo salicyanilide], the “Minimum Inhibitory Concentration (MIC) against P. Ovale” value in the data set on P. Ovale [1] (agar, 27°C, 4 days) is listed as 1000 PPM.

For “N-alkyl-dimethyl-benzyl ammonium chloride”, the “Minimum Inhibitory Concentration (MIC) against P. Ovale” value in the data set on P. Ovale [1] (agar, 27°C, 4 days) is listed as over 1000 PPM.

Turning to Undecen-1-ol, the “Minimum Inhibitory Concentration (MIC) against P. Ovale” value in the data set with P. Ovale [1] (agar, 27°C, 4 days) is over 1000 PPM.

With `Sc1ccccn1` [2-mercaptopyridine], the MIC with P. Ovale [1] (setting [5]) is over 1000 µg/mL.
